From patent publication US6303621A, “Method for treating cancers using a diiodo thyronine analogue having no significant hormonal activity and a vinca alkaloid and compositions comprising the same” (priority 1999, dated 2001)
“Also recorded” adds a separate entry of the source.

Tests used:
tadpole metamorphosis = details: in vivo; cited from earlier work
thyroid = details: rat, in vivo; cited from earlier work
[1] = system: non-malignant mouse pituitary adenoma; details: in vivo; cited from earlier work
human cancer cells [2] = details: studies set forth in U.S. Ser. Nos. 08/655,267 and 08/833,272; cited from earlier work
[3] = system: metaphase arrest in cancer cells; experiment: Metaphase block (mitotic block); format: cell-based; details: FIG. 7
Description: Metaphase was quantitated as reported by Mendeleyev et al., International Journal of Oncology 10:689-695 (1997).
Since vincristine and vinblastine were equivalent here we illustrate only DIME-vinblastine interaction on mitotic block.

human cancer cells [4] = experiment: Cytostatic / cytocidal activity of DIME analogues on human cancer cells; format: cell-based
Description: Such tests may also screen for the ability of a particular compound to inhibit malignant tumor cell growth in vitro or in vivo or abolish tumorigenicity of malignant cells.
As will be appreciated by the skilled artisan, many varieties of malignant tumor cell cultures and cell lines may be used to screen for activity, including but not limited to HL-60, HT-144, E-ras-20, DU-145, MDA-168, MCF-7, 855-2 and MDA-MB-231. Of course, other in vitro and/or in vivo assays as will be apparent to the skilled artisan to screen for anti-tumor and/or anti-cancer activity may also be employed to identify effective diiodo thyronine analogues useful in the present invention.

malignant tumor growth = experiment: Activity of DIME in vivo (general statement)
[5] = system: Ras and apoptosis-regulating kineses (ASK1), pathways; details: Wang et al.; cited from earlier work
[6] = system: esterase activity in certain tumor cells; experiment: Stability to hydrolysis (esterase); details: versus DIME
microtubules = experiment: Microtubule binding
[7] = system: MDA-MB-231 human mammary cancer cells; experiment: Cell growth kinetics, median effect and isobologram; format: cell-based; details: 0.75 μM DIME (or DIPE) or 1-2 nM vincristine alone
Experimental: (§1) c. MDA-MB-231 human mammary cancer cells were cultured and treated as reported previously by Mendeleyev et al., International Journal of Oncology 10:689-695 (1997) and Zhen et al., International Journal of Oncology 10:689-695 (1997). For the assay of cell growth kinetics cells, were seeded into 2cm^2 wells (24-well plates) at a density of 8×10^3 /cm^2 at the time of seeding. Vincristine (or vinblastine) and DIME (or DIPE) were added from DMSO dilutions (1-2 μl/ 500 μl culture mediim) either from separate drug solutions or for the construction of median effect plot (FIG. 1) from a pre-made mixture of both drugs (e.g. 0.75 μM DIME+2 nM vincristine) and simultaneous dilutions thereof (Chou et al. Eur. J. Biochem. 115: 207-216 (1981)). The cultures were incubated at 37° C. for 4 days and growth rates, leading to near confluency in drug-free controls, were monitored by cell counting in a haemocytometer after detachment by trypsin treatment Mendeleyev et al., International Journal of Oncology 10:689-695 (1997) and Zhen et al., International Journal of Oncology 10:689-695 (1997). Mathematical analysis of growth curves and median effects and isobolograms were carried out by published procedures (Chou et al. J. Theor. Biol. 65: 345-356 (1977), Chou et al. Eur. J. Biochem. 115: 207-216 (1981) and Chou et al. Adv. in Enzyme Regulation 22:27-55 (1984)) and error bars indicate SD=Σx^2 +L -(Σx)^2 /n where X is the numerical results with n=3-5.
Kinetics of vincristine-DIME interactions: Interpretation of conventional isobolograms, consisting of plots of I50 values of two drugs alone and in combination is valid only if it is proven kinetically that both drugs bind at mutually exclusive sites.
Isobologram analysis of the combined action of DIME and vincristine is illustrated in FIG. 2, and it is evident that the action of the two drugs in combination exceed an additive effect, which is depicted by a concave curve, contrasting with additive action, which would display a straight line connecting the I50 values for each drug alone (dotted line in FIG. 2). […]

tubulin α+β = experiment: Inhibition of tubulin polymerization / assembly of microtubules; format: biochemical; details: FIG. 4b
Experimental: The optical tests were performed as reported by Buki et al., International Journal of Oncology 10:911-913 (1997).

[8] = system: MDA-MB-231 human mammary cancer cells; experiment: Colony formation (cell killing); format: cell-based; details: FIG. 4a
Experimental: as §1
e. Colony formation was quantitated as reported by. Each colony of 50 cells is the outgrowth from one cell, plated 10 days before colony counting.

leukemias = details: in vivo; cited from earlier work
caspase 3 [9] = experiment: Caspase 3 assay in drug-treated cells; format: cell-based, human; details: 0.75 μM DIME or 2 nM vincristine alone, 3 days
Experimental: g. Caspase 3 assay. MDA 231 cells were grown for 3 days in the absence of drugs (control) or in the presence of 0.75 μM DIME, or in the presence of 2 nM vincristine, or in the presence of both drugs. After harvesting and washing the cells with PBS, they were lysed in a lysis buffer (10 mM HEPES, 5 mM DTT, 2 mM EDTA, 1 mM PMSF, 0.1% CHAPS, 20 μg/ml each of aprotinin, leupeptin, pepstatin, pH 7.4), and were frozen and thawed 3 times. […] Each cell extract was incubated at room temperature with and without preincubation with the caspase inactivator DEVD-CMK. The difference of fluorescence was plotted against time. The fluorescence was calibrated with the fluorophore AFC.

caspase 3 [10] = experiment: Caspase 3 in cell-free extracts treated with drugs; format: biochemical; details: results not shown
[11] = vindesine versus vincristine; cited from earlier work

NC(Cc1cc(I)c(Oc2cc(I)c(O)c(I)c2)c(I)c1)C(=O)O (stereo not shown) [thyroxine, reference compound]
Metabolic or cell differentiating activity (tadpole metamorphosis) (tadpole metamorphosis): induces cell differentiation | Uptake of iodine by the thyroid (thyroid): suppresses uptake of iodine by the thyroid | Growth of non-malignant mouse pituitary tumor [1]: depress growth

COC(=O)c1cc(I)c(Oc2ccc(OC)cc2Cl)c(I)c1 [Compound 14, Methyl 3,5-diiodo-4-(2'-chloro-4'-methoxyphenoxy)benzoate]
maximal inhibitory action on the growth of human cancer cells as compared to DIME (human cancer cells [2]): about 25%

CC[C@]1(O)C[C@@H]2CN(CCc3c([nH]c4ccccc34)[C@@](C(=O)OC)(c3cc4c(cc3OC)N(C)[C@H]3[C@@](O)(C(=O)OC)[C@H](OC(C)=O)[C@]5(CC)C=CCN6CC[C@]43[C@@H]65)C2)C1 [vinblastine]
Combined action with DIME on metaphase arrest, vincristine versus vinblastine [3]: equivalent

CCOC(=O)c1cc(I)c(Oc2ccc(OC)cc2)c(I)c1 [Compound 5, Ethyl 3,5-diiodo-4-(4'-methoxyphenoxy)benzoate]
Cytostatic and cytocidal activity in cellular assays (human cancer cells [4]): completely inactive | Activity in vivo (malignant tumor growth): completely inactive

CC(=O)O[C@H]1C(=O)[C@@]2(C)[C@H]([C@H](OC(=O)c3ccccc3)[C@]3(O)C[C@H](OC(=O)[C@H](O)[C@@H](NC(=O)c4ccccc4)c4ccccc4)C(C)=C1C3(C)C)[C@]1(OC(C)=O)CO[C@@H]1C[C@@H]2O [taxol]
Activation of Ras and ASK1 pathways [5]: can activate both Ras and apoptosis-regulating kineses (ASK1), pathways

COc1ccc(Oc2c(I)cc(C(C)=O)cc2I)cc1 [DIPE, 1-[3,5-diiodo-4-(4'-methoxyphenoxy)-phenyl]-ethanone]
Stability to hydrolysis [6]: non-hydrolyzable | Binding to microtubules (microtubules): bind to microtubules | Growth rate with single drug [7]: do not elicit effects that exceed the SD of average cell growth rates | Inhibition of assembly of microtubules, DIME versus DIPE (tubulin α+β): equivalency; also recorded: Inhibitory effects | Inhibition of colony formation, DIME versus DIPE [8]: equivalency; also recorded: Equivalent effectivity

CC[C@]1(O)C[C@H]2CN(CCc3c([nH]c4ccccc34)[C@@](C(=O)OC)(c3cc4c(cc3OC)N(C=O)[C@H]3[C@@](O)(C(=O)OC)[C@H](OC(C)=O)[C@]5(CC)C=CCN6CC[C@]43[C@@H]65)C2)C1 [vincristine, reference compound]
Growth rate with single drug [7]: do not elicit effects that exceed the SD of average cell growth rates; also recorded: fall within SD values | Combined action with DIME on metaphase arrest, vincristine versus vinblastine [3]: equivalent | Activity in leukemias (leukemias): most active and useful agent in the treatment of leukemias | Activation of caspase 3, single drug (caspase 3 [9]): small rate of caspase 3 activity | Caspase 3 increase in cell-free extracts (caspase 3 [10]): do not show an increase in caspase 3

CC[C@]1(O)C[C@@H]2CN(CCc3c([nH]c4ccccc34)[C@@](C(=O)OC)(c3cc4c(cc3OC)N(C)[C@H]3[C@@](O)(C(N)=O)[C@H](O)[C@]5(CC)C=CCN6CC[C@]43[C@@H]65)C2)C1 [vindesine, 4-desacetyl vinblastine C-3 carboxamide]
Neurotoxicity in humans [11]: less neurotoxicity than does vincristine | Activity in leukemias (leukemias): active in certain leukemias

CCCOc1ccc(Oc2c(I)cc(C(=O)OC)cc2I)cc1 [Compound 3]
Cytostatic and cytocidal activity in cellular assays (human cancer cells [4]): completely inactive | Activity in vivo (malignant tumor growth): completely inactive
